Measurements from PMC7046293, “Parallel quorum-sensing system in Vibrio cholerae prevents signal interference inside the host” (PLoS Pathogens, 2020).

Molecular target: T1, CqsR-LBD (Vibrio cholerae, UniProt Q9KR16)
T1 construct: gene VC_1831; pET28B His6 tag kept; E. coli BL21(DE3)
Assay: differential scanning fluorimetry (SYPRO Orange)
Format: binding
Settings: 10 mM ligand; 10 μM protein; PBS pH 7.5, 10% glycerol; Tm without ligand 46 °C
Source text: differential scanning fluorimetry (SYPRO Orange) on CqsR-LBD

| SMILES | Tm (°C)^b |
| --- | --- |
| C[C@H](N)CO [L-alaninol, (S)-(+)-2-Amino-1-propanol] | 60 °C |
| NC(CO)CO [Serinol, 2-Amino-1,3-propanediol] | 53.67 [0.58] |
